According to patent US20170202932A1, “METHODS FOR INHIBITING NEURON APOPTOSIS AND NECROSIS” (NEWSOUTH INNOVATIONS PTY LIMITED, priority 2012, published 2017):

Experiments:
[1] = biological target: T1, recombinant mouse TRPC3c channels (Mus musculus, UniProt Q9QZC1, DEL811-838); assay: Whole-cell patch clamp of CCh-activated current, HEK293 cells expressing TRPC3c; format: cell-based; settings: TRPC3c+CCh (100 μM)+genistein 200 μM pre-incubation; Vh=−50 mV; n=7; CCh alone −809.4±36.9 pA
T1 construct: expressed in transfected cells; host or cells: HEK293 cells, stably transfected (pIRES-DsRed2 vector)
T1 sequence (Q9QZC1 with tags, fused parts or gaps DEL811-838): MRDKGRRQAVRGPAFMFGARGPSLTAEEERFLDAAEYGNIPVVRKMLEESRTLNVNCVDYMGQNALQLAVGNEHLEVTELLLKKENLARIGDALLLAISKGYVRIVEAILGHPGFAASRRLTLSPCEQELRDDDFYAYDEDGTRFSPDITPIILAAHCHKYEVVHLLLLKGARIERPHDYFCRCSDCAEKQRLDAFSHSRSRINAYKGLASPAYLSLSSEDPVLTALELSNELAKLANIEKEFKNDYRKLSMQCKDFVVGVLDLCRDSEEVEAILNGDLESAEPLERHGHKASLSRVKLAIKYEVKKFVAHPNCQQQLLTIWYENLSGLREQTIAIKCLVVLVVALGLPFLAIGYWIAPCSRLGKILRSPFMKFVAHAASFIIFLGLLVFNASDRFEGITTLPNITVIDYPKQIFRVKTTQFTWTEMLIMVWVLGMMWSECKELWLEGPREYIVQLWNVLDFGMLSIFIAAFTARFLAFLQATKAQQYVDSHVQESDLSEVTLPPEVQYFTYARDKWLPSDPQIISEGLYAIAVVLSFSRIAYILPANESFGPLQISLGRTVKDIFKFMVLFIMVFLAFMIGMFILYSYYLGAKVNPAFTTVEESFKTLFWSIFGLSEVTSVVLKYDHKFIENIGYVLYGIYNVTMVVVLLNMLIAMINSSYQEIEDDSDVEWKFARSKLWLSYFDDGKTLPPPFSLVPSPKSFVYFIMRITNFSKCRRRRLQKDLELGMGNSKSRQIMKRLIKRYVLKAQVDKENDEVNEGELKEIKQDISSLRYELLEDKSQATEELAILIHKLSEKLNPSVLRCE
Method: (§1) For whole cell patch clamp recordings, HEK293 cells stably expressing recombinant TRPC3 ion channels were grown to 85-95% confluence on a coverslip coated with poly-D-lysine and collagen (both from Sigma-Aldrich, U.S.A.). Recording pipettes were made from borosilicate glass (GC120TF-10, Harvard Apparatus, U.K.). The pipette resistance was at 3-6 MΩ (PC-10, Narishige, Japan). The internal solution had the composition: 130 mM CsCl, 2 mM MgCl2, 10 mM EGTA, 0.3 mM ATP, 0.03 mM GTP, pH at 7.3 adjusted with CsOH. Cells on the coverslip were placed in a microchamber on an inverted microscope (Leica DMIL, Germany) and superfused with HEPES-buffered physiological salt solution (HPSS) containing 120 mM NaCl, 5.4 mM KCl, 2 mM CaCl2, 1.13 mM MgCl2, 10 mM glucose, 20 mM HEPES (pH 7.4) at room temperature.
(§2) Whole cell patch clamp recordings were made following a gigaseal, using an Axopatch 200 patch clamp amplifier (Molecular Devices, U.S.A.) controlled by software (pClamp 10.2, Molecular Devices, U.S.A.). Cell capacitance was cancelled and series resistance was compensated by ˜90%. […] Carbachol (used to activate TRPC3 channels via the endogenously expressed M3 AChR) was purchased from Sigma-Aldrich (U.S.A.). DHPG (—(S)-2-amino-2-(3,5-dihydroxyphenyl)acetic acid), a group I mGluR agonist (Schoepp et al. 1994), was purchased from Tocris Bioscience (U.K.). […]

[2] = biological target: src tyrosine kinase (Homo sapiens, UniProt P12931); settings: cited from earlier work
[3] = biological target: T2, recombinant mouse TRPC3b channels (Mus musculus, UniProt Q9QZC1, R524G); assay: Whole-cell patch clamp of CCh-activated current, HEK293 cells expressing TRPC3b; format: cell-based; settings: TRPC3b+CCh (100 μM)+genistein 200 μM pre-incubation; Vh=−50 mV; n=6; CCh alone −235.0±28.7 pA
T2 construct: Full length mouse TRPC3 transcripts were obtained by PCR; expressed in transfected cells; host or cells: HEK293 cells, stably transfected (pIRES-DsRed2 vector)
T2 sequence (Q9QZC1 75-910 R524G limits assumed): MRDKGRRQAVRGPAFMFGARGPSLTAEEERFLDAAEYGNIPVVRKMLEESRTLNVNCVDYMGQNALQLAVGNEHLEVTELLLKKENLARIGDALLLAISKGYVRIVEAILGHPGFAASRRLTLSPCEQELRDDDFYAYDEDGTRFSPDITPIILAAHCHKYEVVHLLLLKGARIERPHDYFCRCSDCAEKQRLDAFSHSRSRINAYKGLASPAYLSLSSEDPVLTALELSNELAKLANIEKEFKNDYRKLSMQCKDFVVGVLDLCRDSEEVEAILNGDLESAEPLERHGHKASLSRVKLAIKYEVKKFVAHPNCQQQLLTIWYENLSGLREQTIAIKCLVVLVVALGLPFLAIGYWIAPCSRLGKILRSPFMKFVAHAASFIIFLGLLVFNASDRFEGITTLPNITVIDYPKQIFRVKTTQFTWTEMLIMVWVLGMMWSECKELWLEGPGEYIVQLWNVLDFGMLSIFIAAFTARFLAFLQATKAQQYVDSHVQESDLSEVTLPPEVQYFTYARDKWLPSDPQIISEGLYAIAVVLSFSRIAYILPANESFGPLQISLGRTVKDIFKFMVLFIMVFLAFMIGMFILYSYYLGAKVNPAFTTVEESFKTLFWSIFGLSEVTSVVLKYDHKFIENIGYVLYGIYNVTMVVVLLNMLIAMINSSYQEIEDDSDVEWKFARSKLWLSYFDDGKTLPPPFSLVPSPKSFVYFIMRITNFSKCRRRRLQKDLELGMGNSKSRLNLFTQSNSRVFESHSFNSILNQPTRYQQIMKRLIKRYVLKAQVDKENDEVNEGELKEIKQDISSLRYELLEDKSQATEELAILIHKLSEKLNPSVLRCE
Method: as §1, §2

Sequence of src tyrosine kinase (P12931 whole entry): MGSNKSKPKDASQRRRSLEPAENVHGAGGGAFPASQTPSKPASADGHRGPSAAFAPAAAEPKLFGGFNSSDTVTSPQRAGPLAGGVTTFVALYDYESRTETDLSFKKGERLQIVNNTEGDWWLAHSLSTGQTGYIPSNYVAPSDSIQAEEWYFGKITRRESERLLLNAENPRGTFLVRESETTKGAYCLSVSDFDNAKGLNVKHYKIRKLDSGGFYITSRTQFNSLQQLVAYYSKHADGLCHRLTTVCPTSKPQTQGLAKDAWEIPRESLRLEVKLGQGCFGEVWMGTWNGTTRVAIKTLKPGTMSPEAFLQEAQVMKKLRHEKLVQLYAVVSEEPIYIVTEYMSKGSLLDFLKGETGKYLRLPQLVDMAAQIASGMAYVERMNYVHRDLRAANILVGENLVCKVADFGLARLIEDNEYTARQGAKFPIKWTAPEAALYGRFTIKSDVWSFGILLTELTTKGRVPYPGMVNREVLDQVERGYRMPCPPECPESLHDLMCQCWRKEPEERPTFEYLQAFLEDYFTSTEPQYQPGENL

O=c1c(-c2ccc(O)cc2)coc2cc(O)cc(O)c12 [genistein, 4′, 5,7-trihydroxyisoflavone]
mean peak CCh-activated whole-cell inward current [1]: −35.4±8.1 pA | src tyrosine kinase-mediated phosphorylation of TRPC3 [2]: inhibit | mean peak CCh-activated whole-cell inward current [3]: −24.8±9.7 pA
